The text below walks through data of a melting point compilation (Tetko et al.).

Consider `O=C(C=Cc1ccc([N+](=O)[O-])cc1)c1ccccc1`, for which the melting point (as a rule, the temperature, or range, at which the solid turns liquid) came out at 164 °C.

In turn, `c1ccc2c(c1)NC1(CCCC1)O2` registered a melting point of 221 °C.

With `O=[N+]([O-])c1ccc(CCBr)cc1`, the melting point came out at 69 °C.

The compound `COP(=S)(OC)Oc1ccc(S(=O)(=O)N(C)C)cc1` showed a melting point of 53 °C.

In turn, `CCC1(c2ccccc2)C(=O)NC(=O)N(C)C1=O` (stereo not given) displayed a melting point of 176 °C.

Regarding `CCOC(=O)C(C#N)=NNc1ccccc1[N+](=O)[O-]`, the melting point was in the range of 102 to 103 °C.

Compound `Cc1cncc(N2CCC(C(=O)O)CC2)n1` yielded a melting point of 151 to 152 °C.

Turning to `OCCN(CCO)c1ccccc1`, the melting point worked out at 57 °C.

With `NC(=O)c1c(F)c(F)c(N)c(F)c1F`, the melting point is 183 to 187 °C.

Regarding `Cc1cc([N+](=O)[O-])ccc1I`, the melting point was determined as 102 °C.

`CC(=O)c1cc(C)c(Br)cc1O`: the melting point stood at 88 °C.

In turn, `CC(=O)Oc1ccc(C(C)=O)c(O)c1` had a melting point of 57 to 59 °C.

For `COC1OC(CNC(=O)N(CCCl)N=O)C(O)C(O)C1O` (stereo not given), the melting point stood at 111 °C.

The compound `Cn1c(S)nnc1Cc1ccsc1` yielded a melting point of 130 to 133 °C.

Take `Clc1ccc(C(Cl)Cl)c(Cl)c1Cl`: the melting point came out at 84 °C.

For `Cc1cccc(S)c1`, the melting point was -20 °C.

On to `Nc1cc2c3ccccc3ccc2c2ccccc12`, for which the melting point amounted to 210 °C.

Compound `CC[Si](Cl)(Cl)Cl` yielded a melting point of -106 °C.

The compound `O=Cc1cccc(C(F)(F)F)c1O` came in with a melting point of 57 °C.

`Oc1cc(OCc2ccccc2)ccn1` had a melting point of 196 °C.

In the case of `O=[N+]([O-])C(Br)C(Br)c1cccc(C(Br)C(Br)[N+](=O)[O-])c1` (stereo not given), the melting point was determined as 147 °C.

For `N#Cc1ccc(-c2ccco2)cc1`, the melting point lay in the range of 66 to 67 °C.

`OCc1nccn1Cc1ccccc1` came in with a melting point of 94 to 97 °C.

Consider `Fc1cc(F)c(Br)c(Br)c1`, for which the melting point was 37 °C.

`CC(C)(C)OC(=O)N1CCC(OCC(=O)NC2CC2)CC1` gave a melting point of 86 °C.

Compound `Nc1cc(Cl)ccc1[N+](=O)[O-]` yielded a melting point of 128 °C.

Turning to `Nc1ccncc1C=O`, the melting point turned out to be 110 °C.

For the compound `CC1CCC(C(C)C)C(OCC(=O)O)C1` (stereo not given), the melting point is 54 °C.

In turn, `CC(C)(C)c1cc(CC(=O)O)cc(C(C)(C)C)c1O` had a melting point of 157 to 158 °C.

In turn, `CC(=O)C=P(c1ccccc1)(c1ccccc1)c1ccccc1` came in with a melting point of 204 °C.

Compound `O=S(=O)(Cl)c1ccc(Oc2ccccc2)cc1` had a melting point of 44 °C.

Consider `CC1=CC2OC1C(Cl)(Cl)C(=O)C2(Cl)Cl` (stereo not given), for which the melting point is 90 to 90.5 °C.

As for `CN1CCN(CCCN2c3ccccc3Sc3ccc(Cl)cc32)CC1`, the melting point was 228 °C.

In turn, `C=CCSc1nnc(-c2cc(Br)cc(Br)c2O)n1N` yielded a melting point of 162 °C.

`CCc1c(C)nc(NC(=O)NS(=O)(=O)c2cccs2)nc1Cl` showed a melting point of 126 to 127 °C.

With `COc1ccccc1-c1nnc2n1NC(c1ccc(N(C)C)cc1)S2` (stereo not given), the melting point fell in the range of 228 to 230 °C.

Take `Cc1[nH]c(C)c(C)c1C`: the melting point was 111 °C.

Take `CC(=O)Nc1cccc2c1ccc1nc(-c3ccccc3)c(-c3ccccc3)nc12`: the melting point turned out to be 249 °C.

In turn, `Cc1ccc(N=C=Nc2ccc(C)cc2)cc1` showed a melting point of 58.5 °C.

Consider `Clc1cc2nsnc2cc1CBr`, for which the melting point was 75 to 77 °C.

For `C1CCN(CCN2CCCCC2)CC1`, the melting point was -0.5 °C.

Take `O=C(c1ccc2c(c1O)CC=CC2)c1cccc2ccccc12`: the melting point turned out to be 132 °C.

As for `CCOC(=O)c1sc(SC(C)C)c2c1CC(C)(C)CC2=O`, the melting point fell in the range of 87 to 89 °C.

The compound `O=C(O)c1cc(Br)cs1` yielded a melting point of 121 °C.

As to `Nc1cc(N)cc(C(F)(F)F)c1`, the melting point is 88 to 89 °C.

The compound `NC(=O)NN=CC(=O)c1cc(C(=O)C=NNC(N)=O)cc(C(=O)C=NNC(N)=O)c1` gave a melting point greater than 300 °C.

On to `Nc1nnc(Cc2ccccc2)[nH]1`, for which the melting point is 171 to 173 °C.

Turning to `COc1c(C)cc(N)cc1C`, the melting point turned out to be 64 °C.

`Cn1ccc2cc(N)ccc21` registered a melting point of 102 to 103 °C.

`COc1ccc2c(CC(=O)O)coc2c1` registered a melting point of 123 to 124 °C.

Regarding `OC(C1CCCCC1)(C1CCCCC1)C1CCCCC1`, the melting point was 94 to 96 °C.

On to `NC(=O)c1cccc(C(N)=O)c1`, for which the melting point is 280 °C.

In turn, `NC(Cc1c[nH]c2ccc(F)cc12)C(=O)O` (racemic) returned a melting point of 238 to 239 °C.

In the case of `c1ccc2c(c1)ccc1c2ccc2c3ccccc3ccc21`, the melting point came to 368 °C.

In turn, `CCC(C(=O)O)c1ccc(-c2ccccc2)cc1` (stereo not given) showed a melting point of 124 °C.

For `N#Cc1ccc(O)c(Cl)c1`, the melting point fell in the range of 150 to 153 °C.

In turn, `Nc1cccc(-c2ncccn2)c1` had a melting point of 99.5 to 102 °C.

For the compound `CC(C)(C)c1cc(N)[nH]n1`, the melting point is 60 to 62 °C.

Take `COc1ccc2c(c1O)-c1cccc3c1C(C2)N(C)CC3` (stereo not given): the melting point came to 124 °C.

Consider `COC(=O)C=Cc1cccc(C=CC(=O)OC)c1`, for which the melting point was determined as 132 °C.

`CCOc1cccc2ccccc12` gave a melting point of 5.5 °C.

`CC(=O)c1ccc(NC(=O)C(C(F)(F)F)C(F)(F)F)cc1`: the melting point was determined as 174 °C.

For `NN1C(=O)c2cccc3cccc(c23)C1=O`, the melting point lay in the range of 265 to 266 °C.

`CCCc1c(O)c(C(C)=O)cc(C(C)=O)c1O`: the melting point was in the range of 99 to 100 °C.

On to `Cc1ccc(C#N)c(F)c1`, for which the melting point came out at 53 °C.

`COc1ccccc1Nc1[nH]c(=S)nnc1-c1ccccc1` registered a melting point of 241 to 242 °C.

`CC(C)C[C@@H](CC#N)NC(=O)OC(C)(C)C` showed a melting point of 75 to 77 °C.

For the compound `O=C(Cl)c1ccc2noc(-c3ccc(Cl)cc3)c2c1`, the melting point was 180 °C.

Turning to `COc1cc(C=O)cc(Br)c1O`, the melting point was 164 to 166 °C.

`CCN(CCO)c1ccc(N=Nc2ccc([N+](=O)[O-])cc2Cl)cc1` came in with a melting point of 133 °C.

On to `CCCCC(C#N)(Cn1cncn1)c1ccc(Cl)cc1` (stereo not given), for which the melting point came to 70.9 °C.

Turning to `CN1C(C(=O)Nc2ccccn2)=C(O)c2ccccc2S1(=O)=O`, the melting point turned out to be 198 °C.

Turning to `CC(C)CCC[C@@H](C)[C@H]1CC[C@H]2C3=CC=C4C[C@@H](O)CC[C@]4(C)[C@H]3CC[C@]12C`, the melting point was found to be 150 °C.

In turn, `N#Cc1ccc([N+](=O)[O-])cc1Cl` came in with a melting point of 83 to 84 °C.

Turning to `CN(C)C(=O)Nc1ccc(SC(F)(F)Cl)c(Cl)c1`, the melting point was determined as 114 °C.

For `Cc1cc(C)c(Cc2c(C)cc(C)cc2C)c(C)c1`, the melting point came out at 130 °C.

In turn, `CON(C)C(=O)Nc1ccc(Oc2ccc3c(c2)OC(C)(OC)CC3(C)C)cc1` (stereo not given) returned a melting point of 102 °C.

On to `CCOC(=O)c1cc(-c2ccco2)nn1C`, for which the melting point was in the range of 57 to 58 °C.

`COC(=O)C=Cc1ccc(C=CC(=O)OC)c(NC(C)=O)c1` had a melting point of 168 °C.

With `O=C1CCN(C(=O)CCl)N1`, the melting point is 146 °C.

Regarding `Cc1cccc(Cl)c1N`, the melting point stood at 2 °C.

With `CC(=O)SC1CC2=CC(=O)CCC2(C)C2CCC3(C)C(CCC34CCC(=O)O4)C12` (stereo not given), the melting point turned out to be 208 °C.

Turning to `N#Cc1c(-c2ccccc2)c2c(O)[nH]n(-c3ccccc3)c-2nc1=S`, the melting point came to 142 °C.

In the case of `Cc1ccc([N+](=O)[O-])c(CCl)c1`, the melting point lay in the range of 41 to 47 °C.

As for `CC(=O)NC1C(Oc2ccc3c(C)cc(=O)oc3c2)OC(CO)C(O)C1O` (stereo not given), the melting point lay in the range of 208 to 210 °C.

With `NC(=O)C#CC#CC#CCO`, the melting point was 140 °C.

On to `C=C1C(=O)C23C4CC5C(C)(C)CCC(=O)C5(C(=O)O4)C2C(=O)CC1C3O` (stereo not given), for which the melting point came to 250 °C.

On to `O=C1C=C[C@H](CO)O1`, for which the melting point lay within 39 to 45 °C.

On to `O=C(Cl)c1csc(-c2cccc(Cl)c2)n1`, for which the melting point was 85 to 87 °C.

`COc1ccccc1C1Nn2c(nnc2-c2ccccc2)S1` (stereo not given) yielded a melting point of 196 °C.

`O=C(O)C(=S)Cc1cccc(CC(=S)C(=O)O)c1`: the melting point is 85 °C.

`Cc1nn(C)c2sc(C(=O)O)cc12` registered a melting point of 260 °C.

As to `Cc1c(C(=O)O)sc2ccc(Cl)cc12`, the melting point fell in the range of 290 to 292 °C.

`CC(=O)c1ccc(Oc2ccccc2)cc1`: the melting point lay within 52 to 54 °C.

Turning to `CCS(=O)(=O)c1ccc(F)cc1`, the melting point is 41 °C.

Consider `COc1cc(C=Cc2cc(/C=C/c3ccc(O)c(OC)c3)c([N+](=O)[O-])cc2[N+](=O)[O-])ccc1O`, for which the melting point worked out at 251 °C.

In the case of `CC(C)CC(C)(N)C(=O)O` (racemic), the melting point is 300 °C.

The compound `O=C(C(C(F)(F)F)C(F)(F)F)N(Cc1ccccc1)Cc1ccccc1` displayed a melting point of 76 °C.

`CCCCCC(C)Br` (stereo not given) had a melting point of 47 °C.

`CS(=O)(=O)c1ccc(C(=O)CBr)cc1` registered a melting point of 126 to 128 °C.

Consider `CCOC(=O)C1=C(C)NC(C)=C(C(=O)OCC)C1c1cccc(OC)c1O`, for which the melting point amounted to 207 °C.

For the compound `Nc1ccc(Cn2ccnc2)cc1`, the melting point lay in the range of 128 to 130 °C.

`O=C(O)c1c(Br)cccc1Br` displayed a melting point of 150 °C.

Compound `Cc1nc(-c2ccccc2)sc1CO` displayed a melting point of 99 to 102 °C.

The compound `O=[N+]([O-])N1CCCCC1` yielded a melting point of -5.5 °C.

As for `O=C(O)c1csc2ccc(Br)cc12`, the melting point was in the range of 284 to 287 °C.

In turn, `CC(NC(CCc1ccccc1)C(=O)O)C(=O)N1CCCC1C(=O)O` (stereo not given) displayed a melting point of 150 °C.

As to `Cc1cc2ncn(C3OC(CO)C(O)C3O)c2cc1C` (stereo not given), the melting point is 198 °C.

Take `O=[N+]([O-])c1ccc(O)c2ncccc12`: the melting point worked out at 180 °C.

Take `BrCc1ccccc1COc1ccccc1`: the melting point was in the range of 53 to 59 °C.
